# From patent US20220218714A1, “METHOD OF TREATING CANCER” (Epizyme, Inc., priority 2013, published 2022)
# Legend:
# SW982 cells = details: SW982 in vitro culture
# [1] = test system: H3K27me3 in HS-SY-II xenograft; assay: PD alterations in HS-SY-II xenograft model (tumor H3K27me3 ELISA, 7 days); type: in vivo, mice; details: for Mean 2 (H3K27me3 level in tumor, fold change to vehicle): vehicle mean = 1; for Mean Diff. (vehicle vs. treated, tumor H3K27me3): Dunnett's multiple comparisons test; for Significant? (vehicle vs. treated, tumor H3K27me3): Dunnett's test, alpha 0.05
# Experimental: HS-SY-II cells were harvested during mid-log phase growth, and resuspended in Hank balanced salt solution with 50% Matrigel (BD Biosciences). Balb/C-nu mice (Charles River Laboratories Japan) received 1×10^7 cells (0.1 mL cell suspension) subcutaneously in the right flank. Mice carrying tumors of approximately 200 mm^3 (31 days after injection) were sorted into treatment groups with similar mean tumor volumes. Compound A or vehicle (0.5% MC+0.1% Tween-80 in water) was administered at the indicated doses on twice a day for 7 days by oral gavage. Each dose was delivered in a volume of 0.2 mL/20 g mouse (10 mL/kg), and adjusted for the last recorded weight of individual animals. Peripheral blood samples were collected at approximately 5 minutes before and 3 hours after the last dose from Compound A-treated mice. After obtaining plasma samples by centrifugation, the analysis for plasma concentrations of Compound A was conducted by the liquid chromatography-tandem mass spectrometry (LC/MS/MS) method. The UPLC system (Acquity, Waters) equipped with a mass spectrometer (Quattro premier, MICROMASS) was used for quantification of Compound A. The concentrations are plotted (n=5) in FIG. 7A. Each bar represents a mean of plasma concentration in each group.
# For FIG. 10D, tumors were snap-frozen in liquid nitrogen. Frozen tumor samples were cut into a 20 mg pieces and placed in 500 μL of ice cold nuclear extraction buffer (10 mM Tris-HCl, 10 mM MgCl2, 25 mM KCl, 1% Triton X-100, 8.6% Sucrose, plus lx Halt Protease inhibitor cocktail (1861281, Thermo Scientific)) and homogenized with a handy micro homogenizer. Nuclei were collected by centrifugation at 600 g for 5 minutes at 4° C. and washed once with ice cold PBS. Supernatant was removed and histones extracted for one hour with 100 μL, of 0.4 N cold sulfuric acid. Extracts were clarified by centrifugation at 10,000 g for 10 minutes at 4° C. and transferred to a fresh microcentrifuge tube containing 1 mL of ice cold acetone. Histones were precipitated at -20° C. for overnight, pelleted by centrifugation at 10,000 g for 10 minutes and resuspended in 100 p1 of water. Histones were quantified using the BCA protein assay (23225, Pierce). The diluted histones were coated on Immulon 4HBX plates (3855, Thermo Scientific) overnight and ELISA was performed. Briefly, after blocking with PBS containing 0.05% Tween 20 and 2% bovine serum albumin (BSA), the plates were incubated with H3K27me3 antibody (#9733, Cell Signaling Technology) or total histone H3 antibody (AB1791, Abcam). The plates were further incubated with horseradish peroxidase conjugated anti-rabbit IgG (#7074, Cell Signaling Technology), followed by incubated with TMB substrate (TMBS-0100-01, BioFx Laboratories). Subsequently, the developed colors in the wells were measured using a plate spectrophotometer (SpectraMax 250, Molecular Devices) at 450 nm (reference wavelength 650 nm). The H3K27me3 levels were adjusted to total histone H3, and expressed as fold changes to vehicle control. The values are plotted (n=6) in FIG. 10D. Each bar represents a mean of the values in each group. […] Histones were extracted and quantified, and the levels of H3K27me3 were analyzed as described above. Trimethylation levels of H3K27 in the tumor are plotted (n=5) in FIG. 7B. Each bar represents a mean ±SEM of the trimethylation level in each group.
# [2] = test system: H3K27me3 in HS-SY-II cells; assay: H3K27 methylation alterations, ELISA of extracted histones; type: cell-based, human; details: 96 hours treatment
# Experimental: (§1) HS-SY-II and SW982 cells were treated with either DMSO or Compound A starting at 40 nmol/L and decreasing in fourfold dilutions for 96 hours. Cells were washed by ice cold PBS, harvested by cell scraper, and lysed with 100 μL of nuclear extraction buffer (10 mM Tris-HCl, 10 mM MgCl2, 25 mM KCl, 1% Triton X-100, 8.6% Sucrose, plus × Halt Protease inhibitor cocktail (1861281, Thermo Scientific). Nuclei were collected by centrifugation at 600 g for 5 minutes at 4° C. and washed once with ice cold PBS. Supernatant was removed and histones extracted for one hour with 100 μL of 0.4 N cold sulfuric acid. Extracts were clarified by centrifugation at 10,000 g for 10 minutes at 4° C. and transferred to a fresh microcentrifuge tube containing 1 mL of ice cold acetone. Histones were precipitated at −20° C. for overnight, pelleted by centrifugation at 10,000 g for 10 minutes and resuspended in 100 μl of water. Histones were quantified using the BCA protein assay (23225, Pierce). The diluted histones were coated on Immulon 4HBX plates (3855, Thermo Scientific) overnight and ELISA was performed. […] Subsequently, the developed colors in the wells were measured using a plate spectrophotometer (SpectraMax 250, Molecular Devices) at 450 nm (reference wavelength 650 nm).
# (§2) The range of ICso values (two independent experiments), shown in FIG. 6B, were determined by GraphPad Prism (GraphPad Software).
# H3K27me3 in SW982 cells = assay: as above; type: cell-based, human; details: 96 hours treatment
# Experimental: as §1, §2
# [3] = tumor H3K27me3 across dose groups (FIG. 7B)
smiles,measurement,setting,value
CCN(c1cc(-c2ccc(CN3CCOCC3)cc2)cc(C(=O)NCc2c(C)cc(C)[nH]c2=O)c1C)C1CCOCC1 [Compound A],ATF3 and EGR1 expression,SW982 cells,not in SW982
same,"Mean 2 (H3K27me3 level in tumor, fold change to vehicle)",[1]; 125 mg/kg oral twice daily 7 days,0.7
same,"Mean Diff. (vehicle vs. treated, tumor H3K27me3)",[1]; 125 mg/kg,0.3
same,"Significant? (vehicle vs. treated, tumor H3K27me3)",[1]; 125 mg/kg,Yes
same,"Mean 2 (H3K27me3 level in tumor, fold change to vehicle)",[1]; 250 mg/kg oral twice daily 7 days,0.55
same,"Mean Diff. (vehicle vs. treated, tumor H3K27me3)",[1]; 250 mg/kg,0.45
same,"Significant? (vehicle vs. treated, tumor H3K27me3)",[1]; 250 mg/kg,Yes
same,"Mean 2 (H3K27me3 level in tumor, fold change to vehicle)",[1]; 500 mg/kg oral twice daily 7 days,0.304
same,"Mean Diff. (vehicle vs. treated, tumor H3K27me3)","[1]; 500 mg/kg, listed as E7435",0.696
same,"Mean Diff. (vehicle vs. treated, tumor H3K27me3)","[1]; 500 mg/kg, listed as E7438",0.896
same,"Significant? (vehicle vs. treated, tumor H3K27me3)",[1]; 500 mg/kg,Yes
same,H3K27me3 levels in tumor tissues,[1]; oral twice daily for 7 days,dose dependent decrease
same,Is linear trend significant (P <0.05)?,[1]; [3],Yes
same,Post test for linear trend: R squared,[1]; [3],0.9104
same,Post test for linear trend: Slope,[1]; [3],−0.1119
same,ratio of H3K27me3/total H3 (ratio to control),[2],decreased
same,ratio of H3K27me3/total H3 (ratio to control),H3K27me3 in SW982 cells,decreased
